Columns and labels:
Liver [1] = experiment: Biodistribution in liver of NMRI nude mouse xenografted with human PC3 cells at 8.3 to 15.3 MBq after 117 mins by gamma-counting analysis; assay type: ADME, organism-based, PC-3; settings: in vivo, 1.95 h
Liver [2] = experiment: Biodistribution in liver of NMRI nude mouse xenografted with human PC3 cells at 4.8 to 10.5 MBq after 117 mins by gamma-counting analysis in presence of bombesin; assay type: ADME, organism-based, PC-3; settings: in vivo, 1.95 h
Spleen [3] = experiment: Biodistribution in spleen of NMRI nude mouse xenografted with human PC3 cells at 4.8 to 10.5 MBq after 117 mins by gamma-counting analysis in presence of bombesin; assay type: ADME, organism-based, PC-3; settings: in vivo, 1.95 h
Mus musculus [4] = experiment: Biodistribution in abdominal region of NMRI nude mouse xenografted with human PC3 cells at 8.3 to 15.3 MBq after 60 to 105 mins by PET imaging analysis; assay type: ADME, organism-based, Abdomen, PC-3; settings: in vivo
Mus musculus [5] = experiment: Biodistribution in tumor of NMRI nude mouse xenografted with human PC3 cells at 8.3 to 15.3 MBq after 60 to 105 mins by PET imaging analysis; assay type: ADME, organism-based, Neoplasm, PC-3; settings: in vivo
Lung [6] = experiment: Biodistribution in lung of NMRI nude mouse xenografted with human PC3 cells at 4.8 to 10.5 MBq after 117 mins by gamma-counting analysis in presence of bombesin; assay type: ADME, organism-based, PC-3; settings: in vivo, 1.95 h
Blood [7] = experiment: Biodistribution in blood of NMRI nude mouse xenografted with human PC3 cells at 8.3 to 15.3 MBq after 117 mins by gamma-counting analysis; assay type: ADME, organism-based, PC-3; settings: in vivo, 1.95 h
Intestine [8] = experiment: Biodistribution in intestine of NMRI nude mouse xenografted with human PC3 cells at 4.8 to 10.5 MBq after 117 mins by gamma-counting analysis in presence of bombesin; assay type: ADME, organism-based, PC-3; settings: in vivo, 1.95 h
Bone = experiment: Biodistribution in bone of NMRI nude mouse xenografted with human PC3 cells at 8.3 to 15.3 MBq after 60 to 105 mins by PET imaging analysis; assay type: ADME, organism-based, Bone element, PC-3; settings: in vivo
Intestine [9] = experiment: Biodistribution in intestine of NMRI nude mouse xenografted with human PC3 cells at 8.3 to 15.3 MBq after 117 mins by gamma-counting analysis; assay type: ADME, organism-based, PC-3; settings: in vivo, 1.95 h
Pancreas [10] = experiment: Biodistribution in pancreas of NMRI nude mouse xenografted with human PC3 cells at 8.3 to 15.3 MBq after 117 mins by gamma-counting analysis; assay type: ADME, organism-based, PC-3; settings: in vivo, 1.95 h
Mus musculus [11] = experiment: Biodistribution in prostate of NMRI nude mouse xenografted with human PC3 cells at 4.8 to 10.5 MBq after 117 mins by gamma-counting analysis in presence of bombesin; assay type: ADME, organism-based, Prostate gland, PC-3; settings: in vivo, 1.95 h
Kidney [12] = experiment: Biodistribution in kidney of NMRI nude mouse xenografted with human PC3 cells at 4.8 to 10.5 MBq after 117 mins by gamma-counting analysis in presence of bombesin; assay type: ADME, organism-based, PC-3; settings: in vivo, 1.95 h
Mus musculus [13] = experiment: Biodistribution in tumor of NMRI nude mouse xenografted with human PC3 cells at 8.3 to 15.3 MBq after 117 mins by gamma-counting analysis; assay type: ADME, organism-based, Neoplasm, PC-3; settings: in vivo, 1.95 h
Mus musculus [14] = experiment: Biodistribution in tumor of NMRI nude mouse xenografted with human PC3 cells at 4.8 to 10.5 MBq after 117 mins by gamma-counting analysis in presence of bombesin; assay type: ADME, organism-based, Neoplasm, PC-3; settings: in vivo, 1.95 h
Mus musculus [15] = experiment: Biodistribution in gallbladder of NMRI nude mouse xenografted with human PC3 cells at 4.8 to 10.5 MBq after 117 mins by gamma-counting analysis in presence of bombesin; assay type: ADME, organism-based, Gall bladder, PC-3; settings: in vivo, 1.95 h
Mus musculus [16] = experiment: Biodistribution in prostate of NMRI nude mouse xenografted with human PC3 cells at 8.3 to 15.3 MBq after 117 mins by gamma-counting analysis; assay type: ADME, organism-based, Prostate gland, PC-3; settings: in vivo, 1.95 h
Spleen [17] = experiment: Biodistribution in spleen of NMRI nude mouse xenografted with human PC3 cells at 8.3 to 15.3 MBq after 117 mins by gamma-counting analysis; assay type: ADME, organism-based, PC-3; settings: in vivo, 1.95 h
Mus musculus [18] = experiment: Biodistribution in urinary bladder of NMRI nude mouse xenografted with human PC3 cells at 8.3 to 15.3 MBq after 60 to 105 mins by PET imaging analysis; assay type: ADME, organism-based, PC-3; settings: in vivo
Blood [19] = experiment: Biodistribution in blood of NMRI nude mouse xenografted with human PC3 cells at 4.8 to 10.5 MBq after 117 mins by gamma-counting analysis in presence of bombesin; assay type: ADME, organism-based, PC-3; settings: in vivo, 1.95 h
[20] = Lipophilicity, log D of the compound in 1-octanol/PBS buffer at pH 7.4 after 15 mins by shake flask method; assay type: physicochemical
Lung [21] = experiment: Biodistribution in lung of NMRI nude mouse xenografted with human PC3 cells at 8.3 to 15.3 MBq after 117 mins by gamma-counting analysis; assay type: ADME, organism-based, PC-3; settings: in vivo, 1.95 h
Mus musculus [22] = experiment: Biodistribution in tumor of NMRI nude mouse xenografted with human PC3 cells at 4.8 to 10.5 MBq after 60 to 105 mins by PET imaging analysis in presence of bombesin; assay type: ADME, organism-based, Neoplasm, PC-3; settings: in vivo
[23] = Ratio of biodistribution in tumor to blood of NMRI nude mouse xenografted with human PC3 cells at 4.8 to 10.5 MBq after 117 mins by gamma-counting analysis in presence of bombesin; assay type: ADME, organism-based, PC-3; settings: tumour, 1.95 h
Pancreas [24] = experiment: Biodistribution in pancreas of NMRI nude mouse xenografted with human PC3 cells at 4.8 to 10.5 MBq after 117 mins by gamma-counting analysis in presence of bombesin; assay type: ADME, organism-based, PC-3; settings: in vivo, 1.95 h
[25] = Stability of the compound in PBS buffer up to 2 hrs; assay type: physicochemical
Mus musculus [26] = experiment: Biodistribution in gallbladder of NMRI nude mouse xenografted with human PC3 cells at 8.3 to 15.3 MBq after 117 mins by gamma-counting analysis; assay type: ADME, organism-based, Gall bladder, PC-3; settings: in vivo, 1.95 h
[27] = Ratio of biodistribution in tumor to blood of NMRI nude mouse xenografted with human PC3 cells at 8.3 to 15.3 MBq after 117 mins by gamma-counting analysis; assay type: ADME, organism-based, PC-3; settings: tumour, 1.95 h
Kidney [28] = experiment: Biodistribution in kidney of NMRI nude mouse xenografted with human PC3 cells at 8.3 to 15.3 MBq after 117 mins by gamma-counting analysis; assay type: ADME, organism-based, PC-3; settings: in vivo, 1.95 h

Drug uptake (Liver [1]): 4.4 % ID/g | Drug uptake (Liver [2]): 5.6 % ID/g | Drug uptake (Spleen [3]): 0.57 % ID/g | Drug uptake (Mus musculus [4]): Active | Drug uptake (Mus musculus [5]): Active | Drug uptake (Lung [6]): 1.4 % ID/g | Drug uptake (Blood [7]): 0.91 % ID/g | Drug uptake (Intestine [8]): 16 % ID/g | Drug uptake (Bone): Not Active | Drug uptake (Intestine [9]): 21 % ID/g | Drug uptake (Pancreas [10]): 10 % ID/g | Drug uptake (Mus musculus [11]): 0.7 % ID/g | Drug uptake (Kidney [12]): 2.1 % ID/g | Drug uptake (Mus musculus [13]): 1.8 % ID/g | Drug uptake (Mus musculus [14]): 1.24 % ID/g | Drug uptake (Mus musculus [15]): 236 % ID/g | Drug uptake (Mus musculus [16]): 0.37 % ID/g | Drug uptake (Spleen [17]): 0.57 % ID/g | Drug uptake (Mus musculus [18]): Active | Drug uptake (Blood [19]): 1.17 % ID/g | logD at 0.25 h [20]: 0.3 | Drug uptake (Lung [21]): 0.65 % ID/g | Drug uptake (Mus musculus [22]): Active | Ratio [23]: 1.1 | Drug uptake (Pancreas [24]): 3.4 % ID/g | Stability [25]: Stable | Drug uptake (Mus musculus [26]): 194 % ID/g | Ratio [27]: 2 | Drug uptake (Kidney [28]): 1.7 % ID/g
SMILES: CC(C)C[C@H](NC(=O)C[C@H](O)[C@H](CC(C)C)NC(=O)[C@H](Cc1cnc[nH]1)NC(=O)CN(C)C(=O)[C@@H](NC(=O)[C@H](C)NC(=O)[C@H](Cc1c[nH]c2ccccc12)NC(=O)[C@H](CCC(N)=O)NC(=O)CCCCNC(=O)[C@H](CS(=O)(=O)O)NC(=O)[C@H](CS(=O)(=O)O)NC(=O)Cc1ccc([Si]([18F])(C(C)(C)C)C(C)(C)C)cc1)C(C)C)C(N)=O
